Reference: patent US8198456B2, “Dihydropyridine derivatives as useful as protein kinase inhibitors” (Bayer Intellectual Property GmbH, priority 2006, dated 2012)
pIC50: −log10 of the molar value. Counter-ions that a name gives are not always drawn.

What follows are compounds tested against T1, recombinant human c-MET kinase enzyme domain (Homo sapiens, UniProt P08581) (assay: c-MET receptor tyrosine kinase Homogeneous Time Resolved Fluorescence assay (HTRF)). Conditions: Biological Example 1 and/or Biological Example 2.
T1 construct: Recombinant c-Met kinase domain (amino acids 960-1390); His (N); made in house; host or cells: baculovirus expression system (insect cells; SF21 is named only for the alternative format)
T1 sequence (P08581 960-1390): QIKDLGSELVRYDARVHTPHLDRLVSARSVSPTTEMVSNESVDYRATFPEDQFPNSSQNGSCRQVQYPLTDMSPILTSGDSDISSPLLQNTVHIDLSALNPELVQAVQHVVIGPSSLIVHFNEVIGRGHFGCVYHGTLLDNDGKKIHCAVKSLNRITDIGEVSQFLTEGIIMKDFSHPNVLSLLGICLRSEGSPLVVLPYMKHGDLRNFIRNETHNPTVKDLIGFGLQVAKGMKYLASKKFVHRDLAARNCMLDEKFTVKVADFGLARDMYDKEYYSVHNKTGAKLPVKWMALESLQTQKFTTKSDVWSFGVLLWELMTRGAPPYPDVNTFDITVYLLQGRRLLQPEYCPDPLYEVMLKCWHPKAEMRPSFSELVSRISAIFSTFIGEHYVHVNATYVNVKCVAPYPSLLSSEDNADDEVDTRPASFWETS
Format: biochemical
From the text: Recombinant c-Met kinase domain (amino acids 960-1390) was produced in a baculovirus expression vector as an N-terminal His-tagged fusion protein and purified on a NiNTA column. The resulting purified enzyme was then used in the following c-Met Homogeneous Time Resolved Fluorescence assay (HTRF) to find compounds of the invention and to perform initial activity determinations. Specifically, this assay measures the ability of compounds of the invention to inhibit the phosphorylation of a randomly synthesized, biotinylated heterocopolymeric polypeptide composed of glutamic acid and tyrosine, with an average length of 100 aa. The assay analyzes the amount of phosphorylated polypeptide produced.
The enzymatic phosphorylation of the biotinylated heterocopolymeric polypeptide was performed in a black 384-well plate at ambient temperature in a reaction mixture containing 50 mM HEPES (pH 7.4), 5 mM MgCl2, 5 mM MnCl2, 0.01% Tween-20, and 2 mM DTT, […] recombinant human c-MET kinase enzyme domain, 37 nM biotinylated heterocopolymeric polypeptide composed of glutamic acid and tyrosine, 20 μM ATP, 1% DMSO in the absence or presence of a compound of the invention. The reaction was stopped after a 20-minute incubation by the addition of 80 mM EDTA.
The formation of phosphorylated heterocopolymeric, biotinylated polypeptide was quantified with the HTRF assay technology using an anti-phosphotyrosine antibody, PT66, conjugated to europium cryptate, mixed with a streptavidin-XL665 conjugate. Reduced or inhibited phosphorylation of the heterocopolymeric, biotinylated polypeptide prevents the anti-phosphotyrosine antibody from binding to the peptide, resulting in a loss of energy transfer to the streptavidin-XL665 conjugate.
Following the 384-well enzymatic phosphorylation reaction outlined above, the detection of phosphorylated heterocopolymeric, biotinylated polypeptide was performed by dilution of the stopped reaction mixture 2-fold with 50 mM HEPES (pH 7.0), 500 mM KF, 0.1% BSA, streptavidin-XL665 (20 nM), and anti-phosphotyrosine antibody PT66-crypate conjugate (6.4 ng/well) and incubation for four hours at ambient temperature. Plates were read in an Envision plate reader (PerkinElmer Life and Analytical Sciences, Inc., MA) simultaneously at 620 nm and 665 nm to obtain signal ratios of 665 nm/620 nm. Results of energy transfer were expressed as signal ratios of 665 nm/620 nm. Negative controls were samples without recombinant c-MET or c-MET treated with 100 mM EDTA.
For determination of IC50 values of particular compounds of the invention, eight serially diluted compound concentrations (at 1:3.16 dilution) were used in the assay. Controls without a compound of the invention or with a reference compound were run in parallel in the same assay plate.

| pIC50 | SMILES |
| --- | --- |
| > 7.00 | CCC1=C(C#N)C(c2ccc3[nH]ncc3c2)C(C#N)=C(CC)N1 [compound 269, 2,6-diethyl-1,4-dihydro-4-(1H-indazol-5-yl)-3,5-pyridinedicarbonitrile] |
| 6.30 to 7.00 | COC(=O)c1cccc(C2C(C#N)=C(C)NC(C)=C2C#N)c1 [compound 10, 3-(3,5-dicyano-1,4-dihydro-2,6-dimethyl-4-pyridinyl)-benzoic acid, methyl ester] |
| > 7.00 | CC1=C(C#N)C(c2ccc3[nH]nc(NCc4ccc(N(C)CCO)cc4)c3c2)C(C#N)=C(C)N1 [compound 172, 1,4-dihydro-4-[3-[[[4-[(2-hydroxyethyl)methylamino]phenyl]methyl]amino]-H-indazol-5-yl]-2,6-dimethyl-3,5-pyridinedicarbonitrile] |
| > 7.00 | CC1=C(C#N)C(c2ccc3[nH]ncc3c2)C(C#N)=C(c2ccc(N3CCOCC3)nc2)N1 (stereo not drawn) [compound 271, 1,4-dihydro-4-(1H-indazol-5-yl)-6-methyl-6′-(4-morpholinyl)-[2,3′-bipyridine]-3,5-dicarbonitrile] |
| > 7.00 | CC1=C(C#N)C(c2ccc3[nH]nc(-c4ccc(N5CCN(C)CC5)nc4)c3c2)C(C#N)=C(C)N1 [compound 137, 1,4-dihydro-2,6-dimethyl-4-[3-[6-(4-methyl-1-piperazinyl)-3-pyridinyl]-1H-indazol-5-yl]-3,5-pyridinedicarbonitrile] |
| 5.60 to 6.30 | CC1=C(C#N)C(c2cccc(NC(=O)c3ccncc3)c2)C(C#N)=C(C)N1 [compound 57, N-[3-(3,5-dicyano-1,4-dihydro-2,6-dimethyl-4-pyridinyl)phenyl]-4-pyridinecarboxamide] |
| > 7.00 | COC(=O)c1ccc(C2=C(C#N)C(c3ccc4[nH]ncc4c3)C(C#N)=C(C)N2)cc1 (stereo not drawn) [compound 257, 4-[3,5-dicyano-1,4-dihydro-4-(1H-indazol-5-yl)-6-methyl-2-pyridinyl]-benzoic acid methyl ester] |
| > 7.00 | CC1=C(C#N)C(c2ccc3[nH]nc(-c4ccc(N5CCN(C(=O)OC(C)(C)C)CC5)cc4)c3c2)C(C#N)=C(C)N1 [compound 155, 4-[4-[5-(3,5-dicyano-1,4-dihydro-2,6-dimethyl-4-pyridinyl)-1H-indazol-3-yl]-phenyl]-1-piperazinecarboxylic acid 1,1-dimethylethyl ester] |
| 6.30 to 7.00 | CC1=C(C#N)C(c2cccc(C(=O)Nc3ccc(N(C)C)cn3)c2)C(C#N)=C(C)N1 [compound 63, 3-(3,5-dicyano-1,4-dihydro-2,6-dimethyl-4-pyridinyl)-N-[5-(dimethylamino)-2-pyridinyl]-benzamide] |
| > 7.00 | CO/N=C/c1n[nH]c2ccc(C3C(C#N)=C(C)NC(C)=C3C#N)cc12 [compound 159, 1,4-dihydro-4-[3-[(E)-(methoxyimino)methyl]-1H-indazol-5-yl]-2,6-dimethyl-3,5-pyridinedicarbonitrile] |
| 5.60 to 6.30 | COC(=O)c1cccc(C2C(C#N)=C(C)NC(c3cccc([N+](=O)[O-])c3)=C2C#N)c1 (stereo not drawn) [compound 232, 3-[3,5-dicyano-1,4-dihydro-2-methyl-6-(3-nitrophenyl)-4-pyridinyl]-benzoic acid, methyl ester] |
| > 7.00 | CCCN1CCN(c2n[nH]c3ccc(C4C(C#N)=C(C)NC(C)=C4C#N)cc23)CC1 [165.1, 2,6-dimethyl-4-[3-(4-propyl-piperazin-1-yl)-1H-indazol-5-yl]-1,4-dihydropyridine-3,5-dicarbonitrile, TFA salt] |
| > 7.00 | CC1=C(C#N)C(c2ccc3[nH]nc(Cl)c3c2)C(C#N)=C(C)N1C [compound 298, 4-(3-chloro-1H-indazol-5-yl)-1,4-dihydro-1,2,6-trimethyl-3,5-pyridinedicarbonitrile] |
| 5.60 to 6.30 | CC1=C(C#N)C(c2ccc3[nH]nc(C(F)(F)F)c3c2)C(C#N)=C(C)N1 [compound 169, 1,4-dihydro-2,6-dimethyl-4-[3-(trifluoromethyl)-1H-indazol-5-yl]-3,5-pyridinedicarbonitrile] |
| > 7.00 | CC1=C(C#N)C(c2ccc3[nH]nc(-c4ncc[nH]4)c3c2)C(C#N)=C(C)N1 [compound 170, 1,4-dihydro-4-[3-(1H-imidazol-2-yl)-1H-indazol-5-yl]-2,6-dimethyl-3,5-pyridinedicarbonitrile] |
| > 7.00 | CC1=C(C#N)C(c2ccc3[nH]ncc3c2)C(C#N)=C2CCCCN12 (stereo not drawn) [compound 304, 6,7,8,9-tetrahydro-2-(1H-indazol-5-yl)-4-methyl-2H-quinolizine-1,3-dicarbonitrile] |
| > 7.00 | C#CCN1C(C)=C(C#N)C(c2ccc3[nH]ncc3c2)C(C#N)=C1C [compound 302, 1,4-dihydro-4-(1H-indazol-5-yl)-2,6-dimethyl-1-(2-propynyl)-3,5-pyridinedicarbonitrile] |
| > 7.00 | CCOC(=O)N1CCN(Cc2n[nH]c3ccc(C4C(C#N)=C(C)NC(C)=C4C#N)cc23)CC1 [167.1, 4-[5-(3,5-Dicyano-2,6-dimethyl-1,4-dihydro-pyridin-4-yl)-1H-indazol-3-ylmethyl]-piperazine-1-carboxylic acid ethyl ester, TFA salt] |
| 5.60 to 6.30 | CC1=C(C#N)C(c2cccc(C(=O)NCCc3ccncc3)c2)C(C#N)=C(C)N1 [compound 23, 3-(3,5-dicyano-1,4-dihydro-2,6-dimethyl-4-pyridinyl)-N-[2-(4-pyridinyl)ethyl]-benzamide] |
| > 7.00 | CC1=C(C#N)C(c2ccc3[nH]nc(I)c3c2)C(C#N)=C(C)N1 [compound 93, 1,4-dihydro-4-(3-iodo-1H-indazol-5-yl)-2,6-dimethyl-3,5-pyridinedicarbonitrile] |
| > 7.00 | CC1=C(C#N)C(c2ccc3[nH]ncc3c2)C(C#N)=C(CCN)N1 (stereo not drawn) [compound 255, 2-(2-aminoethyl)-1,4-dihydro-4-(1H-indazol-5-yl)-6-methyl-3,5-pyridinedicarbonitrile] |
| > 7.00 | CC(=O)Nc1cccc(C2=C(C#N)C(c3ccc4[nH]ncc4c3)C(C#N)=C(C)N2)c1 (stereo not drawn) [compound 253, N-[3-[3,5-dicyano-1,4-dihydro-4-(1H-indazol-5-yl)-6-methyl-2-pyridinyl]-phenyl]-acetamide] |
| > 7.00 | CC1=C(C#N)C(c2ccc3[nH]nc(N)c3c2)C(C#N)=C(c2ccoc2C)N1 (stereo not drawn) [compound 282, 4-(3-amino-1H-indazol-5-yl)-1,4-dihydro-2-methyl-6-(2-methyl-3-furanyl)-3,5-pyridinedicarbonitrile] |
| 5.60 to 6.30 | CNC(=O)c1cccc(C2C(C#N)=C(C)NC(c3ccc(N)cc3)=C2C#N)c1 (stereo not drawn) [compound 238, 3-[2-(4-aminophenyl)-3,5-dicyano-1,4-dihydro-6-methyl-4-pyridinyl]-N-methyl-benzamide] |
| > 7.00 | CC1=C(C#N)C(c2ccc3[nH]nc(CNc4cccnc4)c3c2)C(C#N)=C(C)N1 [compound 91, 1,4-dihydro-2,6-dimethyl-4-[3-[(3-pyridinylamino)methyl]-1H-indazol-5-yl]-3,5-pyridinedicarbonitrile] |
| 6.30 to 7.00 | CC1=C(C#N)C(c2cccc(NC(=O)c3ncc[nH]3)c2)C(C#N)=C(C)N1 [compound 65, N-[3-(3,5-dicyano-1,4-dihydro-2,6-dimethyl-4-pyridinyl)phenyl]-1H-imidazole-2-carboxamide] |
| > 7.00 | CC1=C(C#N)C(c2ccc3[nH]ncc3c2)C(C#N)=C(c2ccc(CO)cc2)N1 (stereo not drawn) [compound 258, 1,4-dihydro-2-[4-(hydroxymethyl)phenyl]-4-(1H-indazol-5-yl)-6-methyl-3,5-pyridinedicarbonitrile] |
| 5.60 to 6.30 | COC(=O)Nc1ccc(-c2n[nH]c3ccc(C4C(C#N)=C(C)NC(C)=C4C#N)cc23)cc1 [compound 123, [4-[5-(3,5-dicyano-1,4-dihydro-2,6-dimethyl-4-pyridinyl)-1H-indazol-3-yl]-phenyl]-carbamic acid methyl ester] |
| > 7.00 | CNC(=O)c1n[nH]c2ccc(C3C(C#N)=C(C)NC(C)=C3C#N)cc12 [99.1, 5-(3,5-dicyano-1,4-dihydro-2,6-dimethyl-4-pyridinyl)-N-methyl-1H-indazole-3-carboxamide, TFA salt] |
| > 7.00 | CC1=C(C#N)C(c2ccc3[nH]nc(N)c3c2)C(C#N)=C(c2ccc(Cl)cc2)N1 (stereo not drawn) [compound 264, 4-(3-amino-1H-indazol-5-yl)-2-(4-chlorophenyl)-1,4-dihydro-6-methyl-3,5-pyridinedicarbonitrile] |
